Assays:
[1] = Aqueous solubility of the compound; format: physicochemical; settings: buffer
Mus musculus [2] = experiment: Toxicity in Balb/C mouse administered as single dose measured daily for up to 28 days; format: organism-based; settings: in vivo, 672 h
Mus musculus [3] = experiment: Toxicity in Balb/C mouse administered as daily dose for 1 week measured daily for up to 28 days; format: organism-based; settings: in vivo
MCF7 = experiment: cells; settings: Homo sapiens, MCF7, 48 h
Description: Cytotoxicity in human MCF7 cells assessed as reduction in cell viability incubated for 48 hrs by MTT assay

Bel-7402 = experiment: Cytotoxicity in human Bel7402 cells assessed as reduction in cell viability incubated for 48 hrs by MTT assay; format: functional, cell-based; settings: Bel-7402, 48 h
QGY-7703 = experiment: Cytotoxicity in human QGY7703 cells assessed as reduction in cell viability incubated for 48 hrs by MTT assay; format: functional, cell-based; settings: QGY-7703, 48 h
SMMC-7721 = experiment: Cytotoxicity in human SMMC7721 cells assessed as reduction in cell viability incubated for 48 hrs by MTT assay; format: functional, cell-based; settings: SMMC-7721, 48 h
SGC-7901 = experiment: Cytotoxicity in human SGC7901 cells assessed as reduction in cell viability incubated for 48 hrs by MTT assay; format: functional, cell-based; settings: SGC-7901, 48 h
HepG2 = experiment: Cytotoxicity in human HepG2 cells assessed as reduction in cell viability incubated for 48 hrs by MTT assay; format: functional, cell-based; settings: HepG2, 48 h
KB = experiment: Cytotoxicity in human KB cells assessed as reduction in cell viability incubated for 48 hrs by MTT assay; format: functional, cell-based
MDA-MB-231 = experiment: Cytotoxicity in human MDA-MB-231 cells assessed as reduction in cell viability incubated for 48 hrs by MTT assay; format: functional, cell-based; settings: MDA-MB-231, 48 h
MGC-803 = experiment: Cytotoxicity in human MGC803 cells assessed as reduction in cell viability incubated for 48 hrs by MTT assay; format: functional, cell-based; settings: MGC-803, 48 h
A549 = experiment: cells; settings: Homo sapiens, A549, 48 h
Description: Cytotoxicity in human A549 cells assessed as reduction in cell viability incubated for 48 hrs by MTT assay

SK-N-SH = experiment: Cytotoxicity in human SK-N-SH cells assessed as reduction in cell viability incubated for 48 hrs by MTT assay; format: functional, cell-based

SMILES	solubility [1]	MTD (Mus musculus [2])	MTD (Mus musculus [3])	IC50 (MCF7)	IC50 (Bel-7402)	IC50 (QGY-7703)	IC50 (SMMC-7721)	IC50 (SGC-7901)	IC50 (HepG2)	IC50 (KB)	IC50 (MDA-MB-231)	IC50 (MGC-803)	IC50 (A549)	IC50 (SK-N-SH)
CC[C@@]1(OC(=O)CNC(=O)CCC(=O)[O-])C(=O)OCc2c1cc1n(c2=O)Cc2cc3c4c(ccc3nc2-1)OC(C(C)C)NC4=O.[Na+] (stereo not given in full)	3400 µg/mL	16 mg/kg	10 mg/kg	–	–	–	–	–	–	–	–	–	–	–
CC[C@@]1(O)C(=O)OCc2c1cc1n(c2=O)Cc2cc3c(ccc4oc(-c5ccccn5)nc43)nc2-1	–	–	–	6440 nM	1930 nM	> 10000 nM	> 10000 nM	> 10000 nM	71 nM	2040 nM	2000 nM	54 nM	1500 nM	–
CC[C@@]1(OC(=O)CNC(=O)CCC(=O)O)C(=O)OCc2c1cc1n(c2=O)Cc2cc3c(ccc4ocnc43)nc2-1	–	–	–	> 10000 nM	275 nM	> 10000 nM	> 10000 nM	> 10000 nM	55 nM	916 nM	348 nM	64 nM	92 nM	348 nM
CC[C@@]1(OC(=O)CNC(=O)CCC(=O)O)C(=O)OCc2c1cc1n(c2=O)Cc2cc3c(ccc4oncc43)nc2-1	–	–	–	> 10000 nM	2020 nM	> 10000 nM	> 10000 nM	> 10000 nM	348 nM	7140 nM	641 nM	275 nM	1830 nM	549 nM
CCCCc1nc2c(ccc3nc4c(cc32)Cn2c-4cc3c(c2=O)COC(=O)[C@]3(O)CC)o1	–	–	–	2140 nM	2020 nM	> 10000 nM	> 10000 nM	> 10000 nM	63 nM	2250 nM	562 nM	85 nM	1120 nM	–
CC[C@@]1(O)C(=O)OCc2c1cc1n(c2=O)Cc2cc3c(ccc4ocnc43)nc2-1	–	–	–	2310 nM	2440 nM	11600 nM	3080 nM	> 10000 nM	180 nM	2570 nM	1540 nM	231 nM	2060 nM	–
